Experimental findings from publication PMC5218480 (PLoS ONE, 2017) are described below.

In the assay the test system is MV-4-11 cells. Put plainly: Gene expression microarray analysis (Affymetrix PrimeView) and GSEA. Also on record: RFU PODN (11730768_x_at) / Fold change /veh PODN (11730768_x_at) / RFU LINC00158 (11744669_a_at) / Fold change /veh LINC00158 (11744669_a_at) / RFU DUSP10 (11751237_a_at) / Fold change /veh DUSP10 (11751237_a_at) / RFU ID3 (11757404_x_at) / Fold change /veh ID3 (11757404_x_at) / RFU PLEKHG5 (11737974_s_at) / Fold change /veh PLEKHG5 (11737974_s_at) / RFU LRRC4B (11730491_at) / Fold change /veh LRRC4B (11730491_at) / RFU GIMAP4 (11747438_a_at) / Fold change /veh GIMAP4 (11747438_a_at) / RFU KRT8 (11758183_x_at) / Fold change /veh KRT8 (11758183_x_at) / RFU CNN1 (11734310_a_at) / Fold change /veh CNN1 (11734310_a_at) / RFU VPS37D (11726825_at) / Fold change /veh VPS37D (11726825_at) / RFU C10orf10 (11716522_x_at) / Fold change /veh C10orf10 (11716522_x_at) / RFU KIR2DL2 /// KIR2DL4 /// KIR2DL5A /// KIR2DL5B /// KIR2DS1 /// KIR2DS2 /// KIR2DS3 /// KIR2DS4 /// KIR3DL3 /// KIR3DL3 /// KIR3DS1 (11738374_at) / Fold change /veh KIR2DL2 /// KIR2DL4 /// KIR2DL5A /// KIR2DL5B /// KIR2DS1 /// KIR2DS2 /// KIR2DS3 /// KIR2DS4 /// KIR3DL3 /// KIR3DL3 /// KIR3DS1 (11738374_at) / RFU C1QL1 (11718748_at) / Fold change /veh C1QL1 (11718748_at) / RFU TMPRSS4 (11747572_a_at) / Fold change /veh TMPRSS4 (11747572_a_at) / RFU HAMP (11756126_x_at) / Fold change /veh HAMP (11756126_x_at) / RFU RNFT2 (11725882_a_at) / Fold change /veh RNFT2 (11725882_a_at) / RFU NR4A2 (11747474_a_at) / Fold change /veh NR4A2 (11747474_a_at) / RFU ABCC12 (11746883_a_at) / Fold change /veh ABCC12 (11746883_a_at) / RFU TMEM136 (11760407_x_at) / Fold change /veh TMEM136 (11760407_x_at) / RFU CLDN22 /// WWC2 (11732394_at) / Fold change /veh CLDN22 /// WWC2 (11732394_at) / RFU HLA-DPB1 (11760878_x_at) / Fold change /veh HLA-DPB1 (11760878_x_at) / RFU SPINT1 (11716480_a_at) / Fold change /veh SPINT1 (11716480_a_at) / RFU GAP43 (11754022_s_at) / Fold change /veh GAP43 (11754022_s_at) / RFU A4GNT (11735810_at) / Fold change /veh A4GNT (11735810_at) / RFU PRB3 (11715151_x_at) / Fold change /veh PRB3 (11715151_x_at) / RFU TUBB4B (11761932_at) / Fold change /veh TUBB4B (11761932_at) / RFU CAPN14 (11732068_a_at) / Fold change /veh CAPN14 (11732068_a_at) / RFU TMCC2 (11721928_a_at) / Fold change /veh TMCC2 (11721928_a_at) / RFU IRGQ (11745062_a_at) / Fold change /veh IRGQ (11745062_a_at) / RFU FAM174B (11720279_a_at) / Fold change /veh FAM174B (11720279_a_at) / RFU TMPRSS4 (11748680_a_at) / Fold change /veh TMPRSS4 (11748680_a_at) / RFU FAM212B (11763350_a_at) / Fold change /veh FAM212B (11763350_a_at) / RFU PLEKHG5 (11743358_a_at) / Fold change /veh PLEKHG5 (11743358_a_at) / RFU ZSCAN30 (11745921_a_at) / Fold change /veh ZSCAN30 (11745921_a_at) / RFU CMKLR1 (11741424_a_at) / Fold change /veh CMKLR1 (11741424_a_at) / RFU LOC101060620 /// MAPK8IP1 (11723275_at) / Fold change /veh LOC101060620 /// MAPK8IP1 (11723275_at) / RFU SPTSSB (11747773_x_at) / Fold change /veh SPTSSB (11747773_x_at) / RFU PRSS12 (11739890_at) / Fold change /veh PRSS12 (11739890_at) / RFU BIN1 (11741810_x_at) / Fold change /veh BIN1 (11741810_x_at) / RFU WNT11 (11732464_a_at) / Fold change /veh WNT11 (11732464_a_at) / RFU C10orf10 (11716521_a_at) / Fold change /veh C10orf10 (11716521_a_at) / RFU C5orf56 (11738089_at) / Fold change /veh C5orf56 (11738089_at) / RFU CYB561 (11721691_x_at) / Fold change /veh CYB561 (11721691_x_at) / RFU ANKRD19P (11752326_a_at) / Fold change /veh ANKRD19P (11752326_a_at) / RFU OR2T12 /// OR2T33 /// OR2T8 (11738714_s_at) / Fold change /veh OR2T12 /// OR2T33 /// OR2T8 (11738714_s_at) / RFU VCAN (11748164_a_at) / Fold change /veh VCAN (11748164_a_at) / RFU JSRP1 (11732532_at) / Fold change /veh JSRP1 (11732532_at) / RFU KRTAP10-11 (11738290_x_at) / Fold change /veh KRTAP10-11 (11738290_x_at) / RFU MYO3A (11730013_a_at) / Fold change /veh MYO3A (11730013_a_at) / RFU EBF3 (11725865_a_at) / Fold change /veh EBF3 (11725865_a_at) / RFU CAMK2N1 (11719241_x_at) / Fold change /veh CAMK2N1 (11719241_x_at) / RFU C5orf56 (11738088_a_at) / Fold change /veh C5orf56 (11738088_a_at) / RFU OLFML3 (11715873_a_at) / Fold change /veh OLFML3 (11715873_a_at) / RFU LOC100653217 /// NTM (11731650_a_at) / Fold change /veh LOC100653217 /// NTM (11731650_a_at) / RFU MAPK11 (11762145_a_at) / Fold change /veh MAPK11 (11762145_a_at) / RFU FIZ1 (11724087_x_at) / Fold change /veh FIZ1 (11724087_x_at) / RFU OASL (11726364_x_at) / Fold change /veh OASL (11726364_x_at) / RFU SOX15 (11748057_x_at) / Fold change /veh SOX15 (11748057_x_at) / RFU CD79A (11719716_a_at) / Fold change /veh CD79A (11719716_a_at) / RFU HIST1H1D (11736915_at) / Fold change /veh HIST1H1D (11736915_at) / RFU CASKIN2 (11723855_a_at) / Fold change /veh CASKIN2 (11723855_a_at) / RFU LOC730098 (11760151_x_at) / Fold change /veh LOC730098 (11760151_x_at) / RFU OR4N2 (11742367_at) / Fold change /veh OR4N2 (11742367_at) / RFU PRRT2 (11749266_a_at) / Fold change /veh PRRT2 (11749266_a_at) / RFU SNX32 (11753110_a_at) / Fold change /veh SNX32 (11753110_a_at) / RFU CDHR5 (11726645_a_at) / Fold change /veh CDHR5 (11726645_a_at) / RFU RCAN1 (11760418_a_at) / Fold change /veh RCAN1 (11760418_a_at) / RFU FAM167A (11723789_a_at) / Fold change /veh FAM167A (11723789_a_at) / RFU FAM26E (11764081_at) / Fold change /veh FAM26E (11764081_at) / RFU ISYNA1 (11749810_s_at) / Fold change /veh ISYNA1 (11749810_s_at) / RFU ACY1 (11761880_at) / Fold change /veh ACY1 (11761880_at) / RFU 11764098_at / Fold change /veh 11764098_at / RFU SAMD14 (11745864_x_at) / Fold change /veh SAMD14 (11745864_x_at) / RFU NPB (11741838_a_at) / Fold change /veh NPB (11741838_a_at) / RFU TMPRSS6 (11731388_a_at) / Fold change /veh TMPRSS6 (11731388_a_at) / RFU KRTAP10-2 (11738614_at) / Fold change /veh KRTAP10-2 (11738614_at) / RFU ARHGAP8 /// PRR5-ARHGAP8 (11727945_x_at) / Fold change /veh ARHGAP8 /// PRR5-ARHGAP8 (11727945_x_at) / RFU KRTAP5-7 /// NADSYN1 (11734609_at) / Fold change /veh KRTAP5-7 /// NADSYN1 (11734609_at) / RFU RASL12 (11751679_a_at) / Fold change /veh RASL12 (11751679_a_at) / RFU CDKN2B (11736163_a_at) / Fold change /veh CDKN2B (11736163_a_at) / RFU PRF1 (11729649_at) / Fold change /veh PRF1 (11729649_at) / RFU, ZNF638 /// ZNF638-IT1 / Fold change vs veh, ZNF638 /// ZNF638-IT1 / RFU, PANK3 / Fold change vs veh, PANK3 / RFU, SH3YL1 / Fold change vs veh, SH3YL1 / RFU, ZEB2 / Fold change vs veh, ZEB2 / RFU, NRIP1 / Fold change vs veh, NRIP1 / RFU, PTTG1IP / Fold change vs veh, PTTG1IP / RFU, CAPN2 / Fold change vs veh, CAPN2 / RFU, MED14 / Fold change vs veh, MED14 / RFU, SNORA58 / Fold change vs veh, SNORA58 / RFU, C1orf63 / Fold change vs veh, C1orf63 / RFU, LRRFIP1 / Fold change vs veh, LRRFIP1 / RFU, NDUFAF7 / Fold change vs veh, NDUFAF7 / RFU, SLC12A2 / Fold change vs veh, SLC12A2 / RFU, IBTK / Fold change vs veh, IBTK / RFU, ESF1 / Fold change vs veh, ESF1 / Fold change vs veh, TMEM50B / RFU, TAOK1 / Fold change vs veh, TAOK1 / RFU, ACBD3 / Fold change vs veh, ACBD3 / RFU, TMA16 / Fold change vs veh, TMA16 / RFU, RWDD3 / Fold change vs veh, RWDD3 / RFU, BCAT1 / Fold change vs veh, BCAT1 / RFU, EDEM3 / Fold change vs veh, EDEM3 / RFU, TMEM33 / Fold change vs veh, TMEM33 / RFU, WDR75 / Fold change vs veh, WDR75 / RFU, AHCTF1 / Fold change vs veh, AHCTF1 / RFU, TFRC / Fold change vs veh, TFRC / RFU, ZDHHC17 / Fold change vs veh, ZDHHC17 / RFU, NOM1 / Fold change vs veh, NOM1 / RFU, ARL8B / Fold change vs veh, ARL8B / RFU, ZBTB11 / Fold change vs veh, ZBTB11 / RFU, TAMM41 / Fold change vs veh, TAMM41 / RFU, KIAA1704 /// LOC100996395 / Fold change vs veh, KIAA1704 /// LOC100996395 / RFU, ING1 / Fold change vs veh, ING1 / RFU, TRMT61B / Fold change vs veh, TRMT61B / RFU, FUBP3 / Fold change vs veh, FUBP3 / RFU, TP53 / Fold change vs veh, TP53 / RFU, TNKS2 / Fold change vs veh, TNKS2 / RFU, ZFP14 / Fold change vs veh, ZFP14 / RFU, ACTR2 / Fold change vs veh, ACTR2 / RFU, PPP3R1 / Fold change vs veh, PPP3R1 / RFU, PIK3R1 / Fold change vs veh, PIK3R1 / RFU, HNRNPA1 / Fold change vs veh, HNRNPA1 / RFU, RNF170 / Fold change vs veh, RNF170 / RFU, ZNF28 / Fold change vs veh, ZNF28 / RFU, RNGTT / Fold change vs veh, RNGTT / RFU, OGT / Fold change vs veh, OGT / RFU, BRD1 / Fold change vs veh, BRD1 / RFU, MARS / Fold change vs veh, MARS / RFU, ZNF655 / Fold change vs veh, ZNF655 / RFU, FAHD1 / Fold change vs veh, FAHD1 / RFU, BDP1 / Fold change vs veh, BDP1 / RFU, LRRCC1 / Fold change vs veh, LRRCC1 / RFU, ARID1A / Fold change vs veh, ARID1A / RFU, ZNF146 / Fold change vs veh, ZNF146 / RFU, ZNF330 / Fold change vs veh, ZNF330 / RFU, GPN3 / Fold change vs veh, GPN3 / RFU, C9orf123 / Fold change vs veh, C9orf123 / RFU, N4BP2L2 / Fold change vs veh, N4BP2L2 / RFU, ARFIP1 / Fold change vs veh, ARFIP1 / RFU, FAM179B / Fold change vs veh, FAM179B / RFU, BCL10 / Fold change vs veh, BCL10 / RFU, UHRF1BP1L / Fold change vs veh, UHRF1BP1L / RFU, BET1 / Fold change vs veh, BET1 / RFU, CNOT2 / Fold change vs veh, CNOT2 / RFU, ZNF268 / Fold change vs veh, ZNF268 / Fold change vs veh, ZNF507 / RFU, DGCR2 / Fold change vs veh, DGCR2 / RFU, WDSUB1 / Fold change vs veh, WDSUB1 / Fold change vs veh, HSP90B1 /// MIR3652 / RFU, ADSS / Fold change vs veh, ADSS / RFU, GK / Fold change vs veh, GK / RFU, ZNF148 / Fold change vs veh, ZNF148 / RFU, TAF9 / Fold change vs veh, TAF9 / RFU, SLC1A5 / Fold change vs veh, SLC1A5 / RFU, SLMO2 / Fold change vs veh, SLMO2 / RFU, ABCC4 / Fold change vs veh, ABCC4 / RFU, LOC101060439 /// RAP1B / Fold change vs veh, LOC101060439 /// RAP1B / RFU, RFX7 / Fold change vs veh, RFX7 / RFU, GTPBP10 / Fold change vs veh, GTPBP10 / RFU, CNEP1R1 / Fold change vs veh, CNEP1R1 / RFU, BIVM-ERCC5 /// ERCC5 / Fold change vs veh, BIVM-ERCC5 /// ERCC5 / RFU, ILF3 / Fold change vs veh, ILF3 / RFU 11762660_at / Fold change /veh 11762660_at / RFU VCAN (11757783_s_at) / Fold change /veh VCAN (11757783_s_at) / RFU DDX43 (11728927_at) / Fold change /veh DDX43 (11728927_at) / RFU KRT8 (11758188_x_at) / Fold change /veh KRT8 (11758188_x_at) / RFU NKD1 (11759106_at) / Fold change /veh NKD1 (11759106_at) / RFU SRD5A1 (11742802_a_at) / Fold change /veh SRD5A1 (11742802_a_at) / RFU TPSAB1 /// TPSB2 (11721975_s_at) / Fold change /veh TPSAB1 /// TPSB2 (11721975_s_at) / RFU GSTM3 (11746129_a_at) / Fold change /veh GSTM3 (11746129_a_at) / RFU IL23R (11737362_x_at) / Fold change /veh IL23R (11737362_x_at) / RFU TMEM51 (11727254_a_at) / Fold change /veh TMEM51 (11727254_a_at) / RFU PIWIL2 (11732686_x_at) / Fold change /veh PIWIL2 (11732686_x_at) / RFU ORM1 (11744905_x_at) / Fold change /veh ORM1 (11744905_x_at) / RFU CCDC152 (11743942_at) / Fold change /veh CCDC152 (11743942_at) / RFU ECM1 (11717891_a_at) / Fold change /veh ECM1 (11717891_a_at) / RFU IL23R (11748794_a_at) / Fold change /veh IL23R (11748794_a_at) / RFU TNFAIP8L3 (11732012_x_at) / Fold change /veh TNFAIP8L3 (11732012_x_at) / RFU MBOAT4 (11741988_at) / Fold change /veh MBOAT4 (11741988_at) / RFU 11764193_at / Fold change /veh 11764193_at / RFU TMEM53 (11763286_at) / Fold change /veh TMEM53 (11763286_at) / RFU MAGEB2 (11727129_at) / Fold change /veh MAGEB2 (11727129_at) / RFU TMEM200A (11744735_a_at) / Fold change /veh TMEM200A (11744735_a_at) / RFU CCDC152 (11751479_a_at) / Fold change /veh CCDC152 (11751479_a_at) / RFU FAM211A (11726209_a_at) / Fold change /veh FAM211A (11726209_a_at) / RFU RGS16 (11746705_a_at) / Fold change /veh RGS16 (11746705_a_at) / RFU VCAN (11755009_s_at) / Fold change /veh VCAN (11755009_s_at) / RFU RHOB (11743442_s_at) / Fold change /veh RHOB (11743442_s_at) / RFU RGS16 (11720943_a_at) / Fold change /veh RGS16 (11720943_a_at) / RFU RGS16 (11720944_at) / Fold change /veh RGS16 (11720944_at) / RFU, VPS4B / Fold change vs veh, VPS4B / RFU, CREB1 / Fold change vs veh, CREB1 / RFU, DNAJC13 / Fold change vs veh, DNAJC13 / RFU, GNAQ / Fold change vs veh, GNAQ / RFU, CDK5R1 / Fold change vs veh, CDK5R1 / RFU, ZRANB3 / Fold change vs veh, ZRANB3 / RFU, CUL4A / Fold change vs veh, CUL4A / RFU, CCNY / Fold change vs veh, CCNY / RFU, UFL1 / Fold change vs veh, UFL1 / RFU, COG3 / Fold change vs veh, COG3 / RFU, DIAPH2 / Fold change vs veh, DIAPH2 / RFU, SKA2 / Fold change vs veh, SKA2 / RFU, AFF3 / Fold change vs veh, AFF3 / RFU, LMF1 / Fold change vs veh, LMF1 / RFU, IPO11 / Fold change vs veh, IPO11 / RFU, DFFB / Fold change vs veh, DFFB / RFU, FOXP1 / Fold change vs veh, FOXP1 / RFU, CARD8 / Fold change vs veh, CARD8 / RFU, STRN3 / Fold change vs veh, STRN3 / RFU, ADK / Fold change vs veh, ADK / RFU, RASSF2 / Fold change vs veh, RASSF2 / RFU, WIPF1 / Fold change vs veh, WIPF1 / RFU, LARP1B / Fold change vs veh, LARP1B / RFU, RASA1 / Fold change vs veh, RASA1 / RFU, RB1 / Fold change vs veh, RB1 / RFU, PPFIA1 / Fold change vs veh, PPFIA1 / RFU, MAT2A / Fold change vs veh, MAT2A / RFU, CCT5 / Fold change vs veh, CCT5 / RFU, WDR92 / Fold change vs veh, WDR92 / RFU, CUX1 / Fold change vs veh, CUX1 / RFU, TTC7A / Fold change vs veh, TTC7A / RFU, TMEM135 / Fold change vs veh, TMEM135 / RFU, DEPTOR / Fold change vs veh, DEPTOR / RFU, CPM / Fold change vs veh, CPM / RFU, DNAJB6 / Fold change vs veh, DNAJB6 / RFU, CACNA2D3 / Fold change vs veh, CACNA2D3 / RFU, DTX4 / Fold change vs veh, DTX4 / RFU, TFCP2 / Fold change vs veh, TFCP2 / RFU, GMCL1 /// GMCL1P1 / Fold change vs veh, GMCL1 /// GMCL1P1 / RFU, AEBP2 / Fold change vs veh, AEBP2 / RFU, SNHG1 /// SNORD22 /// SNORD25 /// SNORD26 /// SNORD27 /// SNORD28 /// SNORD29 /// SNORD31 / Fold change vs veh, SNHG1 /// SNORD22 /// SNORD25 /// SNORD26 /// SNORD27 /// SNORD28 /// SNORD29 /// SNORD31 / Fold change (Aza/veh), C12orf56 (ProbeSet 11735607_a_at) / Fold change (ACY-1035/veh), C12orf56 (ProbeSet 11735607_a_at) / Fold change (Aza/veh), FGFR1OP (ProbeSet 11751329_s_at) / Fold change (ACY-1035/veh), FGFR1OP (ProbeSet 11751329_s_at) / Fold change (Aza/veh), VPS36 (ProbeSet 11739960_a_at) / Fold change (ACY-1035/veh), VPS36 (ProbeSet 11739960_a_at) / RFU SYPL1 (11715823_x_at) / Fold change /veh SYPL1 (11715823_x_at) / RFU IGFBP7 (11715501_s_at) / Fold change /veh IGFBP7 (11715501_s_at) / RFU REEP3 (11722064_at) / Fold change /veh REEP3 (11722064_at) / RFU IGLL1 (11728026_x_at) / Fold change /veh IGLL1 (11728026_x_at): dose or concentration left out as unconfirmed. The following applies: ProbeSet 11729173_a_at; LIST D. It is filed as cell-based, human.

SMILES strings stand for the structures.

As to `Nc1ncn([C@@H]2O[C@H](CO)[C@@H](O)[C@H]2O)c(=O)n1` [azacitidine], the “RFU, SKA2” value came out at 326.42 RFU.
